Patent US8530466B2, “Use of 2,4-pyrimidinediamines for the treatment of atherosclerosis” (Rigel Pharmaceuticals, Inc., priority 2008, dated 2013)

Experiments:
Human mast cells (CHMC) [1] = test: Mast cell activation induced by FcγR cross-linking: degranulation (tryptase); format: cell-based; details: anti-IgG 1 μg/ml, 60-minute incubation
Method: Human mast cells were cultured and differentiated from CD38-negative progenitor cell as described in U.S. Patent Publication No. 2005-234049, incorporated herein by reference. For example, 65 μl of various concentrations of 6-(5-fluoro-2-(3,4,5-trimethoxyphenylamino) pyrimidin-4-ylamino)-2,2-dimethyl-2H-pyrido[3,2-b][1,4]oxazin-3(4H)-one (compound 1), prepared in MT (137 mM NaCl, 2.7 mM KCl, 1.8 mM CaCl2, 1.0 mM MgCl2, 5.6 mM Glucose, 20 mM Hepes (pH 7.4), 0.1% Bovine Serum Albumin, (Sigma A4503)) containing 2% MeOH and 1% DMSO, or control buffer were added to duplicate 96-well V-bottom plates. Pelleted and resuspended (in warm MT) CHMC cells (65 μl) were added to each 96-well plate, mixed and incubated for 1 hr at 37° C. […] After a 60-minute incubation at 37° C., cells and cell debris were pelleted by centrifugation at 1000 rpm for 10 min and tryptase and leukotriene C4 levels were measured.
To measure tryptase levels, 25 μl of supernatant from each well was transferred to a fresh 96-well black bottom plate, to which 100 μl of fresh tryptase substrate solution [(Z-Ala-Lys-Arg-AMC2TFA; Enzyme Systems Products, #AMC-246)] […] After 30 min incubation at room temperature, the optical density of the plates is measured at 355 nm/460 nm on a spectrophotometric plate reader. […]

Human mast cells (CHMC) [2] = test: Mast cell activation induced by FcγR cross-linking: LTC4 release (ELISA); format: cell-based; details: anti-IgG 1 μg/ml
Method: (§1) Human mast cells were cultured and differentiated from CD38-negative progenitor cell as described in U.S. Patent Publication No. 2005-234049, incorporated herein by reference. […] A80-105A3) final concentration 1 μg/ml, was added to the test wells. MT (25 μl) was added to control wells. After a 60-minute incubation at 37° C., cells and cell debris were pelleted by centrifugation at 1000 rpm for 10 min and tryptase and leukotriene C4 levels were measured. Leukotriene C4 (LTC4) levels were quantified using an ELISA kit on appropriately diluted supernatant samples following the supplier's instructions (Cayman Chemical Co., Cat No. 520211). Inhibition of release and/or synthesis of lipid mediators was assessed by measuring the release of LTC4 and inhibition of release and/or synthesis of cytokines was monitored by quantifying TNFα, IL-8, GM-CSF, IL-10 and IL-13. Cytokine (TNFα, IL-8, GM-CSF, IL-10, IL-13) production was measured 6-8 hrs post-IgG crosslinking. Leukotriene and cytokine levels were quantified using the following commercial ELISA kits: LTC4 (Cayman Chemical #520211), TNFα (Biosource #KHC3011), GM-CSF (Biosource #KHC0901), IL-10 (Biosource #KHC0122), and IL-13 (Biosource #KHC0132).

Human mast cells (CHMC) [3] = test: Mast cell activation induced by FcγR cross-linking: cytokine production (ELISA); format: cell-based; details: 6-8 hrs post-IgG crosslinking
Method: as §1, with “measured.” for “measured. Leukotriene C4 (LTC4) levels were quantified using an ELISA kit on appropriately diluted supernatant samples following the supplier's instructions (Cayman Chemical Co., Cat No. 520211).”

Platelets in PRP = test: CD62P surface expression by stimulated platelets (flow cytometry); format: cell-based, Human; details: 15 min at 37° C.
Method: Human peripheral blood, from healthy volunteers who had not taken any medication for at least 7 days, was drawn into Vacutainer-ACD tubes (Acid citrate dextrose (ACD) Solution Tubes, VWR Cat. No. VT4606). Platelet-rich plasma (PRP) and platelet-poor plasma (PPP) were prepared by differential centrifugation (200 g and >2500 g, respectively, 20 min, RT). Platelets in PRP were incubated for 10 min at 37° C. with test article-DMSO solutions that had been previously diluted in MT buffer (137 mM NaCl, 2.7 mM KCl, 1.8 mM CaCl2, 1.0 mM MgCl2, 5.6 mM glucose, 20 mM Hepes, 0.1% BSA; pH 7.4). The test articles included dimethyl Sulfoxide (DMSO) (Sigma-Aldrich, Cat No. D2650), wortmannin Penicillium funiculosum (Sigma-Aldrich, Cat No. W1628), and 6-(5-fluoro-2-(3,4,5-trimethoxyphenylamino)pyrimidin-4-ylamino)-2,2-dimethyl-2H-pyrido[3,2-b][1,4]oxazin-3(4H)-one (compound 1).
Cells were stimulated with collagen (Chronolog Corp. Cat. No. 385) at 20 μg/mL, adenosine 5′-diphosphate (ADP) (Sigma-Aldrich Cat. No. A2754) at 33 μM, or phorbol 12-Myristate 13-Acetate (PMA) (Sigma-Aldrich Cat. No. P8139) at 33 ng/mL, for 15 min at 37° C., then incubated with staining antibody (anti-CD62P PE) at RT in the dark for 20 min, and fixed with paraformaldehyde (Cytofix fixation buffer) in the dark for 30 min at RT. Finally, cells were washed with PBS containing 2% fetal bovine serum and stored at 4° C. in the dark prior to flow cytometry. Measurements were performed using a FACScalibur flow cytometer (BD Biosciences, San Jose, Calif., USA). CD62P expression was expressed as geometric mean fluorescence on the vertical axis.

COc1cc(Nc2ncc(F)c(Nc3ccc4c(n3)NC(=O)C(C)(C)O4)n2)cc(OC)c1OC [Compound 1, 6-(5-fluoro-2-(3,4,5-trimethoxyphenylamino)pyrimidin-4-ylamino)-2,2-dimethyl-2H-pyrido[3,2-b][1,4]oxazin-3(4H)-one]
EC50 (Human mast cells (CHMC) [1]; Homo sapiens, Mast cell, 1 h): 53 nM
EC50 (Human mast cells (CHMC) [1]; listed as lot B): 76 nM
EC50 (Human mast cells (CHMC) [2]; Homo sapiens, Mast cell): 36 nM
EC50 (Human mast cells (CHMC) [2]; listed as lot B): 47 nM
EC50 (Human mast cells (CHMC) [3]; listed as lot B, read-out: EC50 GMCSF): 67 nM
EC50 (Human mast cells (CHMC) [3]; listed as lot B, read-out: EC50 IL-8): 62 nM
EC50 (Human mast cells (CHMC) [3]; listed as lot B, read-out: EC50 IL-10): 148 nM
EC50 (Human mast cells (CHMC) [3]; listed as lot B, read-out: EC50 IL-13): 148 nM
EC50 (Human mast cells (CHMC) [3]; listed as lot B, read-out: EC50 TNFα): 120 nM
EC50 (Human mast cells (CHMC) [3]; Homo sapiens, Mast cell, read-out: EC50 GMCSF): 46 nM
EC50 (Human mast cells (CHMC) [3]; Homo sapiens, Mast cell, read-out: EC50 IL-8): 45 nM
EC50 (Human mast cells (CHMC) [3]; Homo sapiens, Mast cell, read-out: EC50 IL-10): 125 nM
EC50 (Human mast cells (CHMC) [3]; Homo sapiens, Mast cell, read-out: EC50 IL-13): 90 nM
CD62P surface upregulation in platelets induced by ADP (Platelets in PRP; ADP 33 μM): did not inhibit
CD62P surface upregulation in platelets induced by PMA (Platelets in PRP; PMA 33 ng/mL): did not inhibit
collagen receptor mediated platelet activation (CD62P surface expression) (Platelets in PRP; collagen 20 μg/mL): inhibited
